Biological target: Aurora kinase B (Homo sapiens) (UniProt Q96GD4)
Experiment: Inhibition of Aurora1 by HTRF kinase assay

Aurora kinase B (Homo sapiens), sequence (Q96GD4 whole entry, looked up): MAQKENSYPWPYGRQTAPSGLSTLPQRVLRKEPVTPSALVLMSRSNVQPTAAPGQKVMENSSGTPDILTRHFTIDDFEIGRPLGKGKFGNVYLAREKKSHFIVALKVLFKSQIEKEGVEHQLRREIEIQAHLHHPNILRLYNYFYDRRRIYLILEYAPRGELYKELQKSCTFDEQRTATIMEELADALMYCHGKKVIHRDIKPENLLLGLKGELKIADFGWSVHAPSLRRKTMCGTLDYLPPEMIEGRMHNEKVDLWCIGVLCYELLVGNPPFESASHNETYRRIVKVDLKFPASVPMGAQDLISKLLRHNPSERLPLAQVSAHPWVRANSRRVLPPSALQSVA

Work on `CNc1ncc2cc(-c3cc(C(=O)Nc4cc(C(F)(F)F)ccc4OC4CCN(C)CC4)ccc3C)ccc2n1` [4-methyl-3-(2-(methylamino)quinazolin-6-yl)-N-(2-(1-methylpiperidin-4-yloxy)-5-(trifluoromethyl)phenyl)benzamide] yielded an IC50 of over 5 µM.

From BindingDB's records for doi:10.1021/jm0605482 (Amgen, 2006)
